Measurements: patent US12324848B2, “Core shell silica particles and uses thereof as an anti-bacterial agent” (Colgate-Palmolive Company, priority 2013, dated 2025)

System: Chemostat Inoculum (bacteria cocktail with A. viscosus, S. oralis, V. parvula, L. casei, and F. nucleatum)
Test: Resazurin anti-bacterial test (bacterial viability microassay)
Format: cell-based
Settings: 1 hr incubation with test solution 1:1 in 1/4 strength trypticase soy broth, average of runs over 4-5 days, concentration as in toothpaste formula
Protocol: The core shell silica (CSS) particles of the invention were testing for anti-bacterial activity using the resazurin anti-bacterial test assay wherein the reduction of resazurin is a measure of reduction of bacterial growth.
All solutions are measured for the bacterial viability using resazurin microassay with Chemostat Inoculum (bacteria cocktail with A. viscosus, S. oralis, V. parvula, L. casei, and F. nucleatum) used in oral care product evaluation. Resazurin (7-Hydroxy-3H-phenoxazin-3-one 10-oxide) is a blue dye used as oxidation—reduction reaction, quantifies bacterial viability from color perception with respiring reaction effect.
Each experiment is conducted with live and dead bacterial cocktail with A. viscosus, S. oralis, V. parvula, L. casei, and F. nucleatum using TSB broth (trypticase soy broth) and ethanol respectively and they were added at proper ratio to generate standard curve from 100% live bacterial cocktail to 100% dead bacterial cocktail collecting at a total of 12 points.
The assay is performed using bacteria pellet from 1 ml Chemostat Inoculum and exposed with 1/4 strength trypticase soy broth: test solution at 1:1 ratio in Eppendorf tube. After 1 hr incubation further bacteria growth was deactivated adding 1 ml D/E Broth with proper mixing and collected pellet was rinsed with 1 ml TSB broth to remove D/E broth completely (D/E=Dey-Engley). […]

With `[Cl-].[Cl-].[Zn+2]` [Positive control (1% ZnCl2 + water), zinc chloride] the “% of viable bacteria” value was 4.88%.
